Data taken from paper doi:10.1101/2023.11.24.568596v1 (biorxiv, 2023).

What was measured:
Details in all cases: binder
MST1 = molecular target: T1, MST1 (Homo sapiens, UniProt Q13043)
T1 sequence (Q13043 1-487): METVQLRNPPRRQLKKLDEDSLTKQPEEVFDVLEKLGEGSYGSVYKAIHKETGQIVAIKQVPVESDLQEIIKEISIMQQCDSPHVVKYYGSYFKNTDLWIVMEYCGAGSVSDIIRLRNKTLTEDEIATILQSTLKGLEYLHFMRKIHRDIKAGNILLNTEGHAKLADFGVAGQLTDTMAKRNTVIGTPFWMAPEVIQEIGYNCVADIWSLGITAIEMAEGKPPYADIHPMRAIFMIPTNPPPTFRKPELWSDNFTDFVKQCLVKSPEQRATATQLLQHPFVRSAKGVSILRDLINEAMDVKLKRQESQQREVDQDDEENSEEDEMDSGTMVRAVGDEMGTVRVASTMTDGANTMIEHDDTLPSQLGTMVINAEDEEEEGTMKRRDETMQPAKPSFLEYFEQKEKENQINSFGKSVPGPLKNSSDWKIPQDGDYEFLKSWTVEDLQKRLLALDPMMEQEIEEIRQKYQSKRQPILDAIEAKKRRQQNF

PAK1 = PAK1 (Homo sapiens, UniProt Q13153)
BMX = molecular target: T2, BMX (Homo sapiens, UniProt P51813)
T2 sequence (P51813 1-675): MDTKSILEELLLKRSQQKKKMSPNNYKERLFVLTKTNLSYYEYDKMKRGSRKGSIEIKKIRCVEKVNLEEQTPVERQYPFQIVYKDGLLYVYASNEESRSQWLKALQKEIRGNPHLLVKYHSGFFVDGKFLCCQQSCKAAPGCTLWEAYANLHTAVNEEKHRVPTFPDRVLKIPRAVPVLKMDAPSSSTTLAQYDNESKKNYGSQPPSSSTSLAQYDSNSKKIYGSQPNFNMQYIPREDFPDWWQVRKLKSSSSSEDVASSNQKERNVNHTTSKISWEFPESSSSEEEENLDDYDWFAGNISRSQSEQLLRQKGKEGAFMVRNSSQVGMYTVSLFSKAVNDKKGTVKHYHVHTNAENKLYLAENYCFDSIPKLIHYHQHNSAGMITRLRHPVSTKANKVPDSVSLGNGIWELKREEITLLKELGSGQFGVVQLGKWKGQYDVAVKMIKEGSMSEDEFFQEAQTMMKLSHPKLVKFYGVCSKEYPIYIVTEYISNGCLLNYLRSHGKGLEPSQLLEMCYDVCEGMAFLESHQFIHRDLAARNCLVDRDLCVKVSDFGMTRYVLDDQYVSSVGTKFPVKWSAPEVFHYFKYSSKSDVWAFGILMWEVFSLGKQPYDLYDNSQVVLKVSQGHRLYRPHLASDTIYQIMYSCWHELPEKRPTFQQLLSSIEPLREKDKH

BRAF = BRAF (Homo sapiens, UniProt P15056)
CLK1 = CLK1 (Homo sapiens, UniProt P49759)
CaMK2d = CaMK2d (Homo sapiens, UniProt Q13557)
MAP3K5 = molecular target: T3, MAP3K5 (Homo sapiens, UniProt Q99683)
T3 sequence (Q99683 1-1374): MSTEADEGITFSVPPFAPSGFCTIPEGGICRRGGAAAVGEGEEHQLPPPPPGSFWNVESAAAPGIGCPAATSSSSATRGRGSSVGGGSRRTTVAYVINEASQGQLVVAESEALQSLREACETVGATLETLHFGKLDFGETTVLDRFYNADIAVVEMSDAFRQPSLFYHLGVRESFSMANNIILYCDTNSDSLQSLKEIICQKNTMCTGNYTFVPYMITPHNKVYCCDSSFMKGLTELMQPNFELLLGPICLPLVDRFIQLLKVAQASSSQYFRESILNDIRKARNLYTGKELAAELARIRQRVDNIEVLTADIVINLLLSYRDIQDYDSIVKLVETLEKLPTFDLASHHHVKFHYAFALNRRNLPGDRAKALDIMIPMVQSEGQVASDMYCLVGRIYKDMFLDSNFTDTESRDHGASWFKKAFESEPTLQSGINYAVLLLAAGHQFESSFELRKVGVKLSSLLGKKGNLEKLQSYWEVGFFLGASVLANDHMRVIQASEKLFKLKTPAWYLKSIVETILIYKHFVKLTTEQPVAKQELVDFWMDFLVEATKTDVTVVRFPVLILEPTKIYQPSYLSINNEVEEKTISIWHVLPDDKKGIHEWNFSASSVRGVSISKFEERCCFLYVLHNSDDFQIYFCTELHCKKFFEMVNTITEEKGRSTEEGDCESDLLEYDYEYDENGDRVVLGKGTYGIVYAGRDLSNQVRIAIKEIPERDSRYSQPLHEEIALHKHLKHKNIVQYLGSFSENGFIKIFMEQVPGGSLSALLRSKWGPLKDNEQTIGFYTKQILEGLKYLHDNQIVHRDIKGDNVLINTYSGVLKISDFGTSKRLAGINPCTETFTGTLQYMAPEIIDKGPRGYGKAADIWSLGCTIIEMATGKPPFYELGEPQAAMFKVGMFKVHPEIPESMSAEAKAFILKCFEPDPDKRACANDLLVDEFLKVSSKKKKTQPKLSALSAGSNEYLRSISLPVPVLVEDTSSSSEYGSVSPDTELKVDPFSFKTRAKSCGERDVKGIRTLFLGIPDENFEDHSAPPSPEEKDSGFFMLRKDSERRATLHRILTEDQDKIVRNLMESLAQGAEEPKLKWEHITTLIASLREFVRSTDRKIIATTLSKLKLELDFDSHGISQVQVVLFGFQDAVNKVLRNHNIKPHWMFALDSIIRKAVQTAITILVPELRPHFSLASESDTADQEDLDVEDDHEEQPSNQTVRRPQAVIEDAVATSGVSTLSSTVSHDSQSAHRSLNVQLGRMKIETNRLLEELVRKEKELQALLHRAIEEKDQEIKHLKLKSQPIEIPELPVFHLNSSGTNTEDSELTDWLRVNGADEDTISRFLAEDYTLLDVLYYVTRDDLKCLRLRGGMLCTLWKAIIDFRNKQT

CaMK2d, sequence (Q13557 whole entry): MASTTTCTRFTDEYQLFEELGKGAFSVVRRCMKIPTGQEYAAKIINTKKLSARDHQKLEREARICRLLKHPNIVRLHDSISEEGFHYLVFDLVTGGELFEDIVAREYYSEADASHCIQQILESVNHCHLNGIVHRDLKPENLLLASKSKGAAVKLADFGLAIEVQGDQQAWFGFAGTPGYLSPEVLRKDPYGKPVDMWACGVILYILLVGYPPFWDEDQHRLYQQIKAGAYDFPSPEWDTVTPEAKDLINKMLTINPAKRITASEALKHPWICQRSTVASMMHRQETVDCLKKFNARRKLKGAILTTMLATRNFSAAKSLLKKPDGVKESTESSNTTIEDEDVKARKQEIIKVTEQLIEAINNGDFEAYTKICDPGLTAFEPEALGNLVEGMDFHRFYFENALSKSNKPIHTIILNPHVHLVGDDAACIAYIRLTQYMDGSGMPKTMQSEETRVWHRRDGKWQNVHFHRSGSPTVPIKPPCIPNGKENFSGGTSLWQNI
PAK1, sequence (Q13153 whole entry): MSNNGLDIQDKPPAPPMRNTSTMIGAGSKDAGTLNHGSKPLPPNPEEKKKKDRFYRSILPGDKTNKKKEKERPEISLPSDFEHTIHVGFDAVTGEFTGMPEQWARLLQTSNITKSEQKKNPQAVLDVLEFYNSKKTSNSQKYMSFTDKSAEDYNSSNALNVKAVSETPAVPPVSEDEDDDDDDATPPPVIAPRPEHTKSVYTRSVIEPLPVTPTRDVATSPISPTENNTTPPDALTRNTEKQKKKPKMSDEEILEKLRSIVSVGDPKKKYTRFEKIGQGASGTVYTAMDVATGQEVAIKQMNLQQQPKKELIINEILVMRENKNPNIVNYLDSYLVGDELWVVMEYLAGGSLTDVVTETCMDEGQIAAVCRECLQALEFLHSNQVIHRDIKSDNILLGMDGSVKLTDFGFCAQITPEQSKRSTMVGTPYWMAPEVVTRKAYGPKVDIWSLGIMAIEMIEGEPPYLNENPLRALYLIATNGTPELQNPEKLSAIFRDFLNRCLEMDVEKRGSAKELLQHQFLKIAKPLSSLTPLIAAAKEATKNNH
CLK1, sequence (P49759 whole entry): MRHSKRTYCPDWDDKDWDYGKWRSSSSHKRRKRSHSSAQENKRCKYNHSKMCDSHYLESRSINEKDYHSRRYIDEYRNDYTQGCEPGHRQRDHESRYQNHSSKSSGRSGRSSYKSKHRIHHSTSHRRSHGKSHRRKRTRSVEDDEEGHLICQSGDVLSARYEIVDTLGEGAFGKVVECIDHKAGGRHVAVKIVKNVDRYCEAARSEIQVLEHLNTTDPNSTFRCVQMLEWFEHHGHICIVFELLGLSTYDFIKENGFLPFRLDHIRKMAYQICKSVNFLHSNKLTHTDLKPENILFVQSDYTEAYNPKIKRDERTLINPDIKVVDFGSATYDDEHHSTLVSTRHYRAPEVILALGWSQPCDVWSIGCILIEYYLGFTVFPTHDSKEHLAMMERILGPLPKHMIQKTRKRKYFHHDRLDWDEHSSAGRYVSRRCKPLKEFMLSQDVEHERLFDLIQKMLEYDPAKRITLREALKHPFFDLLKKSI
BRAF, sequence (P15056 whole entry): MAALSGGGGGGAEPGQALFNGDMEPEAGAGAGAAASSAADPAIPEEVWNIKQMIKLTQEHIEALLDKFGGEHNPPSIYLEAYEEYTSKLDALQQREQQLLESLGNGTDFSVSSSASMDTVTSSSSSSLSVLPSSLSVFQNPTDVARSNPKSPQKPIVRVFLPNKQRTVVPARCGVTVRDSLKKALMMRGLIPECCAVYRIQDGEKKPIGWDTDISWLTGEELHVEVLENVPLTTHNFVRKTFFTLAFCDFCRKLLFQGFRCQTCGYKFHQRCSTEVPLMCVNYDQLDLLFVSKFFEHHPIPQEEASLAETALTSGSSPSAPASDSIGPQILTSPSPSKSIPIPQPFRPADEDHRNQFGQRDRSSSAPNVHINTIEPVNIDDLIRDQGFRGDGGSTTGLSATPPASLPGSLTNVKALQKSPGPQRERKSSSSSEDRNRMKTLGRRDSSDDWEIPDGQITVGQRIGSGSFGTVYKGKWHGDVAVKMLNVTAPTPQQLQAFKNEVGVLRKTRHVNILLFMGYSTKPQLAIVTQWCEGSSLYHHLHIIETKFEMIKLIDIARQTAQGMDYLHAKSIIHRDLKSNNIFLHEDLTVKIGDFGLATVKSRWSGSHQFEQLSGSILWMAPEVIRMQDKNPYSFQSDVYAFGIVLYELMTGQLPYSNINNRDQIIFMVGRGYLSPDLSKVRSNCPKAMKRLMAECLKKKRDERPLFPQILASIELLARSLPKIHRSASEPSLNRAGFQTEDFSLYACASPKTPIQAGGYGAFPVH

SMILES: CNc1ncc2cc(-c3ccc(-c4cccc(C)n4)cc3Cl)c(=O)n(CCCCN)c2n1 [compound 20, MRLW5]
- dTm MST1 (MST1): 5.6 °C
- dTm PAK1 (PAK1): 6.5 °C

SMILES: CNc1ncc2cc(-c3ccc(-c4cccc(C)n4)cc3Cl)c(=O)n(CCC3CCNCC3)c2n1 [compound 22, 6-(2-Chloro-4-(6-methylpyridin-2-yl)phenyl)-2-(methylamino)-8-(2-(piperidin-4-yl)ethyl)pyrido[2,3-d]pyrimidin-7(8H)-one]
- dTm MST1 (MST1): 6.0 °C
- dTm PAK1 (PAK1): 8.6 °C

SMILES: CNc1ncc2cc(-c3ccc(-c4cccc(C)n4)cc3Cl)c(=O)n(C[C@H]3CC[C@H](N)CC3)c2n1 [compound 23, 23]
- dTm MST1 (MST1): 7.9 °C
- dTm PAK1 (PAK1): 8.4 °C

SMILES: Cc1cccc(-c2ccc(-c3cc4cnc(Nc5ccc(F)c(CO)c5)nc4n(CCCCN)c3=O)c(Cl)c2)n1 [compound 33, 8-(4-Aminobutyl)-6-(2-chloro-4-(6-methylpyridin-2-yl)phenyl)-2-((4-fluoro-3-(hydroxymethyl)phenyl)amino)pyrido[2,3-d]pyrimidin-7(8H)-one]
- dTm 33 (BMX): 7.1 °C
- dTm 33 (BRAF): 6.3 °C
- dTm 33 (CLK1): -0.2 °C
- dTm 33 (CaMK2d): -0.2 °C
- dTm 33 (MAP3K5): 14.1 °C

SMILES: COc1ccc(O)c(Nc2ncc3cc(-c4ccc(-c5cccc(C)n5)cc4Cl)c(=O)n(CCCCN)c3n2)c1 [compound 34, 8-(4-Aminobutyl)-6-(2-chloro-4-(6-methylpyridin-2-yl)phenyl)-2-((2-hydroxy-5-methoxy-phenyl)amino)pyrido[2,3-d]pyrimidin-7(8H)-one]
- dTm 34 (BMX): 4.1 °C
- dTm 34 (BRAF): 1.1 °C
- dTm 34 (CLK1): -0.3 °C
- dTm 34 (CaMK2d): -0.2 °C
- dTm 34 (MAP3K5): 10.3 °C

SMILES: COc1cc(N2CCOCC2)ccc1Nc1ncc2cc(-c3ccc(-c4cccc(C)n4)cc3Cl)c(=O)n(CCCCN)c2n1 [compound 35, 8-(4-Aminobutyl)-6-(2-chloro-4-(6-methylpyridin-2-yl)phenyl)-2-((2-methoxy-4-morpholino-phenyl)amino)pyrido[2,3-d]pyrimidin-7(8H)-one]
- dTm 35 (BMX): 4.4 °C
- dTm 35 (BRAF): 0.8 °C
- dTm 35 (CLK1): -1.6 °C
- dTm 35 (CaMK2d): -0.9 °C
- dTm 35 (MAP3K5): 12.2 °C

SMILES: COc1cc(N2CCN(C)CC2)ccc1Nc1ncc2cc(-c3ccc(-c4cccc(C)n4)cc3Cl)c(=O)n(CCCCN)c2n1 [compound 36, 8-(4-Aminobutyl)-6-(2-chloro-4-(6-methylpyridin-2-yl)phenyl)-2-((2-methoxy-4-(4-methylpiperazin-1-yl)phenyl)amino)pyrido[2,3-d]pyrimidin-7(8H)-one]
- dTm 36 (BMX): 3.3 °C
- dTm 36 (BRAF): 0.8 °C
- dTm 36 (CLK1): -0.9 °C
- dTm 36 (CaMK2d): -0.2 °C
- dTm 36 (MAP3K5): 10.1 °C
